Reference: patent US20050004029A1, “Methods and compositions for treating vascular leak using hepatocyte growth factor” (priority 2001, published 2005)
“Also recorded” adds a separate entry of the source.

What was measured:
Rac GTPase = Rac GTPase activity, p21 Rac-binding domain assay; type: cell-based; conditions: HGF 10 ng/mL or Sph-1-P 1 μM for 1 or 5 min
Procedure: Endothelial cells grown in 100 mm dishes were incubated with agonists in serum-free M199. Cells were lysed in 500 μl Mg^2+ lysis buffer (Upstate Biotechnology, Lake Placid, N.Y.) and homogenized by pipetting. After a brief centrifugation to remove the cell debris, 300 μl of supernatant was incubated with the agarose-conjugated p21-binding domain (PBD) of human PAK-1 (10 μg, 30 min, Upstate Biotechnology). The agarose beads were washed with 1 ml of lysis buffer 5 times and re-suspended in 30 μl of 2×SDS buffer. After 10 min centrifugation at 14,000 g, 15 μl of supernatant from each sample was subjected to electrophoresis in 15% PAGE. […] For total Rac protein measurement, 5 μl of the original cell lysates were used for electrophoresis and western analysis. […] Pulmonary artery endothelial cells were incubated with HGF (10 ng/mL) or Sph-1-P (1 μM) for 1 or 5 min. Cells were lysed, supernatants collected, and activated GTP-bound Rac was precipitated by agarose-conjugated human PAK-1 p21-binding domain and subsequently immunoblotted by anti-Rac mAb. Total Rac protein was detected using cell lysates.

[1] = system: human alveolar epithelial cells (A549); assay: Electrical resistance of A549 alveolar epithelial cells on gold microelectrodes; type: cell-based; conditions: HGF 100 ng/mL; sphingosine 1-phosphate 1 μM
Procedure: FIGS. 1A-1D depict HGF-mediated increases in human transendothelial electrical resistance (TER). FIG. 1A: Human pulmonary artery endothelial cells were grown to confluence on gelatinized gold microelectrodes. Two hours prior to TER measurement, growth medium was replaced with serum-free M199. Serial-diluted HGF was added to cells at indicated concentrations and TER monitored for 2.5 hr. […] The result shown is a representative TER tracing of three independent experiments. FIG. 1B: Similar to FIG. 1A, human alveolar epithelial cells (A549) were grown on gold microelectrodes and challenged with vehicle, HGF, (100 ng/mL) or sphingosine 1-phosphate (1 μM). […]
Electrical resistance of EC monolayers was measured using electrical cell impedance sensor system (Applied Biophysics Inc., Troy, N.Y.) as described in Garcia, J. G. N. et al. (2000) J. Appl. […] Cells grown on gold microelectrodes (10^−3 cm^2) in polycarbonate wells act as insulating particles, and the resistance across the monolayers (transendothelial electrical resistance, or TER) is measured in real time. […] The in-phase and out-of-phase voltages between the electrodes were monitored in real time with the lock-in amplifier and converted to scalar measurements of transendothelial impedance, of which resistance was the primary focus. […]

Substance: HGF: heparin-binding glycoprotein, multifunctional cytokine, ligand of c-Met; purchased from R&D Systems
- Rac activity (Rac GTPase): rapidly and transiently increases Rac activity
- effect on electrical resistance of epithelial cells [1]: did not alter TER values; also recorded: completely without effect
